Experimental data published in ChEMBL document CHEMBL2439977, “Discovery of novel bacterial RNA polymerase inhibitors: pharmacophore-based virtual screening and hit optimization” (J Med Chem, 2013).
Converted amounts (≈) assume the structure as drawn. The source made the active and inactive calls. The rule behind the calls is not given here.

Experiments:
[1] = system: Escherichia coli; test: Antibacterial activity against Escherichia coli expressing TolC mutant; type: functional
[2] = system: Escherichia coli; test: Inhibition of Escherichia coli RNA polymerase at 50 uM by transcription assay
[3] = Inhibition of Escherichia coli RNA polymerase by transcription assay
[4] = system: Escherichia coli; test: Induction of resistant frequency in Escherichia coli expressing TolC mutant at 2 times MIC treated for every 3 days; type: functional, organism-based
[5] = system: Bacillus subtilis; test: Antibacterial activity against Bacillus subtilis; type: functional
[6] = system: Staphylococcus aureus; test: Antibacterial activity against Staphylococcus aureus; type: functional
[7] = system: Pseudomonas aeruginosa; test: Antibacterial activity against Pseudomonas aeruginosa PAO1; type: functional
[8] = system: Escherichia coli; test: Antibacterial activity against Escherichia coli K-12; type: functional
[9] = system: Escherichia coli; test: Ratio of IC50 for Escherichia coli RNA polymerase core enzyme to IC50 for Escherichia coli RNA polymerase holo enzyme
[10] = Inhibition of Escherichia coli RNA polymerase core enzyme by transcription assay
[11] = Inhibition of Escherichia coli RNA polymerase holo enzyme by transcription assay
[12] = system: Escherichia coli; test: Inhibition of Escherichia coli RNA polymerase-RNA polymerase sigma factor RpoD interaction at 10 uM by ELISA
[13] = system: Escherichia coli; test: Inhibition of Escherichia coli RNA polymerase at 200 uM by transcription assay
[14] = Inhibition of Escherichia coli RNA polymerase-RNA polymerase sigma factor RpoD interaction by ELISA
[15] = system: Escherichia coli; test: Inhibition of lipid synthesis in Escherichia coli expressing TolC mutant at 4 times MIC after 45 mins; type: functional, organism-based
[16] = system: Escherichia coli; test: Inhibition of RNA synthesis in Escherichia coli expressing TolC mutant at 4 times MIC after 45 mins; type: functional, organism-based
[17] = system: Escherichia coli; test: Inhibition of protein synthesis in Escherichia coli expressing TolC mutant at 4 times MIC after 45 mins; type: functional, organism-based
[18] = system: Escherichia coli; test: Inhibition of DNA synthesis in Escherichia coli expressing TolC mutant at 4 times MIC after 45 mins; type: functional, organism-based
[19] = system: Escherichia coli; test: Inhibition of Escherichia coli RNA polymerase-RNA polymerase sigma factor RpoD interaction at 50 uM by ELISA

## N#Cc1ccc(NC(=O)c2ccc(-c3ccccc3)cc2)c(C(=O)O)c1
[1]
  MIC: 7 µg/mL (≈ 20.4 µM)
[2]
  inhibition: 23%

## O=C(Nc1cc(C(F)(F)F)ccc1C(=O)O)c1ccc(-c2ccccc2)cc1
[1]
  MIC: 5 µg/mL (≈ 13 µM)
[3]; read-out: IC50
  IC50: 27 µM

## O=C(Nc1cc(-c2ccccc2)ccc1C(=O)O)c1cccc(Oc2ccccc2)c1
[1]
  MIC: 8 µg/mL (≈ 19.5 µM)
[3]; read-out: IC50
  IC50: 14 µM

## CO[C@H]1/C=C/O[C@@]2(C)Oc3c(C)c(O)c4c(O)c(c(/C=N/N5CCN(C)CC5)c(O)c4c3C2=O)NC(=O)/C(C)=C\C=C\[C@H](C)[C@H](O)[C@@H](C)[C@@H](O)[C@@H](C)[C@H](OC(C)=O)[C@@H]1C [RIFAMPIN]
[4]
  Activity: Active
[5]
  MIC: 5 µg/mL (≈ 6.08 µM)
[6]
  MIC: 0.02 µg/mL (≈ 0.0243 µM)
[7]
  MIC: 13 µg/mL (≈ 15.8 µM)
[8]
  MIC: 7 µg/mL (≈ 8.51 µM)
[9]
  Ratio IC50: 1
[10]
  IC50: 0.016 µM
[11]
  IC50: 0.027 µM
[12]
  inhibition: < 5%
[1]
  MIC: 10 µg/mL (≈ 12.2 µM)
[3]; read-out: IC50
  IC50: 0.03 µM

## COc1cccc(NC(=O)c2ccc(-c3ccccc3)cc2)c1C(=O)O
[1]
  MIC: 58 µg/mL (≈ 167 µM)
[3]
  IC50: Not Active

## COc1ccc(NC(=O)c2ccc(-c3ccccc3)cc2)c(C(=O)O)c1
[1]
  MIC: 8 µg/mL (≈ 23 µM)
[13]
  inhibition: 52%

## CCCN(CCC)S(=O)(=O)c1ccc(C(=O)Nc2cc3ccccc3cc2C(=O)O)cc1
[9]
  Ratio IC50: 2.6
[10]
  IC50: 81 µM
[11]
  IC50: 52 µM
[14]
  IC50: 97 µM

## O=C(Nc1ccc(F)cc1C(=O)O)c1ccc(-c2ccccc2)cc1
[1]
  MIC: 7 µg/mL (≈ 20.9 µM)
[3]; read-out: IC50
  IC50: 138 µM

## O=C(Nc1cc(Cl)ccc1C(=O)O)c1ccc(-c2ccccc2)cc1
[5]
  MIC: 2 µg/mL (≈ 5.69 µM)
[6]
  MIC: 24 µg/mL (≈ 68.2 µM)
[7]
  MIC: > 50 µg/mL
[8]
  MIC: > 50 µg/mL
[1]
  MIC: 3 µg/mL (≈ 8.53 µM)
[3]; read-out: IC50
  IC50: 37 µM

## O=C(Nc1ccccc1C(=O)O)c1ccc(-c2ccccc2)c(Oc2ccccc2)c1
[9]
  Ratio IC50: 3
[10]
  IC50: 36 µM
[11]
  IC50: 20 µM
[14]
  IC50: 41 µM
[1]
  MIC: 13 µg/mL (≈ 31.8 µM)
[13]
  inhibition: 100%
[3]; read-out: IC50
  IC50: 20 µM

## Cc1ccc(NC(=O)c2ccc(-c3ccccc3)cc2)c(C(=O)O)c1
[1]
  MIC: 7 µg/mL (≈ 21.1 µM)
[3]; read-out: IC50
  IC50: 139 µM

## O=C(Nc1ccc(OC(F)(F)F)cc1C(=O)O)c1ccc(-c2ccccc2)cc1
[1]
  MIC: 4 µg/mL (≈ 9.97 µM)
[3]; read-out: IC50
  IC50: 31 µM

## O=C(Nc1cc(Br)ccc1C(=O)O)c1cccc(Oc2ccccc2)c1
[5]
  MIC: 3 µg/mL (≈ 7.28 µM)
[6]
  MIC: 8 µg/mL (≈ 19.4 µM)
[7]
  MIC: > 25 µg/mL
[8]
  MIC: > 25 µg/mL
[1]
  MIC: 3 µg/mL (≈ 7.28 µM)
[3]; read-out: IC50
  IC50: 34 µM

## O=C(Nc1c(Cl)cccc1C(=O)O)c1ccc(-c2ccccc2)cc1
[1]
  MIC: 55 µg/mL (≈ 156 µM)
[3]
  IC50: Not Active

## O=C(Nc1ccc(-c2ccccc2)cc1C(=O)O)c1cccc(Oc2ccccc2)c1
[4]
  Activity: Active
[15]
  inhibition: inactive
[16]
  inhibition: inactive
[17]
  inhibition: inactive
[18]
  inhibition: inactive
[5]
  MIC: 3 µg/mL (≈ 7.33 µM)
[6]
  MIC: 6 µg/mL (≈ 14.7 µM)
[7]
  MIC: > 25 µg/mL
[8]
  MIC: > 25 µg/mL
[9]
  Ratio IC50: 2.8
[10]
  IC50: 27 µM
[11]
  IC50: 16 µM
[14]
  IC50: 47 µM
[1]
  MIC: 2 µg/mL (≈ 4.88 µM)
[3]; read-out: IC50
  IC50: 13 µM

## O=C(Nc1ccc(Cl)cc1C(=O)O)c1ccc(-c2ccccc2)cc1
[1]
  MIC: 2 µg/mL (≈ 5.69 µM)
[3]; read-out: IC50
  IC50: 46 µM

## O=C(Nc1cccc(F)c1C(=O)O)c1ccc(-c2ccccc2)cc1
[1]
  MIC: 34 µg/mL (≈ 101 µM)
[13]
  inhibition: 14%

## O=C(Nc1cc(Br)ccc1C(=O)O)c1ccc(-c2ccccc2)cc1
[9]
  Ratio IC50: 3
[10]
  IC50: 39 µM
[11]
  IC50: 27 µM
[14]
  IC50: 68 µM
[1]
  MIC: 2 µg/mL (≈ 5.05 µM)
[3]; read-out: IC50
  IC50: 28 µM

## O=C(Nc1ccc(C(F)(F)F)cc1C(=O)O)c1ccc(-c2ccccc2)cc1
[4]
  Activity: Active
[5]
  MIC: 4 µg/mL (≈ 10.4 µM)
[6]
  MIC: 5 µg/mL (≈ 13 µM)
[7]
  MIC: > 50 µg/mL
[8]
  MIC: > 50 µg/mL
[9]
  Ratio IC50: 4
[10]
  IC50: 67 µM
[11]
  IC50: 28 µM
[14]
  IC50: 60 µM
[1]
  MIC: 2 µg/mL (≈ 5.19 µM)
[3]; read-out: IC50
  IC50: 28 µM

## O=C(Nc1cc([N+](=O)[O-])ccc1C(=O)O)c1ccc(-c2ccccc2)cc1
[1]
  MIC: > 25 µg/mL
[3]; read-out: IC50
  IC50: 36 µM

## O=C(Nc1cccc(Cl)c1C(=O)O)c1ccc(-c2ccccc2)cc1
[19]
  inhibition: < 10%
[1]
  MIC: 57 µg/mL (≈ 162 µM)
[3]
  IC50: Not Active

## O=C(Nc1cc(F)ccc1C(=O)O)c1ccc(-c2ccccc2)cc1
[1]
  MIC: 4 µg/mL (≈ 11.9 µM)
[3]; read-out: IC50
  IC50: 98 µM

## O=C(Nc1cc(Cl)ccc1C(=O)O)c1cccc(Oc2ccccc2)c1
[5]
  MIC: 3 µg/mL (≈ 8.16 µM)
[6]
  MIC: 14 µg/mL (≈ 38.1 µM)
[7]
  MIC: > 50 µg/mL
[8]
  MIC: > 50 µg/mL
[1]
  MIC: 3 µg/mL (≈ 8.16 µM)
[3]; read-out: IC50
  IC50: 44 µM

## O=C(Nc1ccccc1C(=O)O)c1ccc(-c2ccccc2)cc1
[1]
  MIC: 13 µg/mL (≈ 41 µM)
[13]
  inhibition: 31%

## C=CCN1C(=O)/C(=C/c2ccc(-c3cccc(C(=O)O)c3)o2)SC1=S
[9]
  Ratio IC50: 2.6
[10]
  IC50: 57 µM
[11]
  IC50: 38 µM
[14]
  IC50: 30 µM

## O=C(Nc1ccccc1C(=O)O)c1cccc(Oc2ccccc2)c1
[1]
  MIC: 9 µg/mL (≈ 27 µM)
[13]
  inhibition: 23%

## O=C(Nc1ccc(O)cc1C(=O)O)c1ccc(-c2ccccc2)cc1
[1]
  MIC: 31 µg/mL (≈ 93 µM)
[13]
  inhibition: 17%

## O=C(Nc1ccccc1C(=O)O)c1ccccc1
[1]
  MIC: > 100 µg/mL
[3]
  IC50: Not Active

## O=C(Nc1ccc(Br)cc1C(=O)O)c1cccc(Oc2ccccc2)c1
[1]
  MIC: 3 µg/mL (≈ 7.28 µM)
[3]; read-out: IC50
  IC50: 34 µM

## O=C(Nc1cc(Cl)ccc1C(=O)O)c1ccc(-c2ccccc2)c(Oc2ccccc2)c1
[9]
  Ratio IC50: 2.9
[10]
  IC50: 12 µM
[11]
  IC50: 7 µM
[14]
  IC50: 33 µM
[1]
  MIC: > 25 µg/mL
[3]; read-out: IC50
  IC50: 9 µM

## O=C(Nc1ccc(Br)cc1C(=O)O)c1ccc(-c2ccccc2)cc1
[1]
  MIC: 3 µg/mL (≈ 7.57 µM)
[3]; read-out: IC50
  IC50: 31 µM

## O=C(Nc1ccc(Br)cc1C(=O)O)c1cccc(Cc2ccccc2)c1
[1]
  MIC: 2 µg/mL (≈ 4.87 µM)
[3]; read-out: IC50
  IC50: 37 µM

## O=C(Nc1cc(F)ccc1C(=O)O)c1ccc(-c2ccccc2)c(Oc2ccccc2)c1
[5]
  MIC: > 25 µg/mL
[6]
  MIC: 17 µg/mL (≈ 39.8 µM)
[7]
  MIC: > 25 µg/mL
[8]
  MIC: > 25 µg/mL
[1]
  MIC: > 25 µg/mL
[3]; read-out: IC50
  IC50: 13 µM

## COc1cc(NC(=O)c2ccc(-c3ccccc3)cc2)c(C(=O)O)cc1OC
[1]
  MIC: 19 µg/mL (≈ 50.3 µM)
[13]
  inhibition: 35%

## CCCC/C(C)=C/C=C(\C)C(=O)c1c(O)cc([C@H](C)CC/C=C/NC(=O)OC)oc1=O [MYXOPYRONIN B]
[5]
  MIC: 0.9 µg/mL (≈ 2.09 µM)
[6]
  MIC: 0.5 µg/mL (≈ 1.16 µM)
[7]
  MIC: > 25 µg/mL
[8]
  MIC: > 25 µg/mL
[1]
  MIC: 1 µg/mL (≈ 2.32 µM)
[3]; read-out: IC50
  IC50: 0.35 µM

## COc1cc(NC(=O)c2cccc(Oc3ccccc3)c2)c(C(=O)O)cc1OC
[1]
  MIC: 6 µg/mL (≈ 15.3 µM)
[3]; read-out: IC50
  IC50: 154 µM

## COc1ccc(C(=O)O)c(NC(=O)c2ccc(-c3ccccc3)cc2)c1
[1]
  MIC: 9 µg/mL (≈ 25.9 µM)
[3]; read-out: IC50
  IC50: 162 µM

## O=C(Nc1ccc(F)cc1C(=O)O)c1cccc(Oc2ccccc2)c1
[5]
  MIC: 4 µg/mL (≈ 11.4 µM)
[6]
  MIC: 48 µg/mL (≈ 137 µM)
[7]
  MIC: > 100 µg/mL
[8]
  MIC: > 100 µg/mL
[1]
  MIC: 5 µg/mL (≈ 14.2 µM)
[3]; read-out: IC50
  IC50: 98 µM
